Test results: patent publication US9764046B2, “Labeling composition for intraocular tissue, labeling method of intraocular tissue, and screening method” (CANON KABUSHIKI KAISHA, priority 2008, dated 2017)

Assays:
[1] = Excitation and fluorescence wavelengths by fluorescence spectrometer FL4500; format: physicochemical; settings: in nm (unit assumed)
[2] = tested on: intraocular tissue (retinal tissue incl. photoreceptor cell layer, vitreous body) of Zebrafish 7-day-old embryo; assay: Staining of intraocular tissue of Zebrafish fry by exposure to staining liquid, ocular tissue section observed by confocal microscope; format: in vivo; settings: Zebrafish 7 dpf fry, 1 μg/mL, 1 hour exposure, fixed ocular section
[3] = aqueous solution: 10 mg/mL DMSO solution diluted to 1/500 with purified water (Examples 1 to 94)
[4] = values in a chloroform solution (Examples 95 to 106)

Row | SMILES | λem (fluorescence wavelength) [1, 3] | λex (excitation wavelength) [1, 3] | Stained site [2] | Staining ability [2] | λem (fluorescence wavelength) [1] | λex (excitation wavelength) [1] | λem (fluorescence wavelength) [1, 4] | λex (excitation wavelength) [1, 4]
1 | O=C(O)C[n+]1c(/C=C/c2ccc3c(c2)C2CCCC2N3Cc2ccccc2)sc2ccccc21.[Br-] (centres unmarked) [Compound 63] | 611 | 566 | 1 | ++ |  |  |  | 
2 | Cn1/c(=C/C=C/C2=[N+](CCCS(=O)(=O)[O-])CCS2)oc(=O)/c1=C/C=C1\SCCN1CCCS(=O)(=O)[O-].[Na+] [Compound 14] |  |  |  | ++ | 617 | 588 |  | 
3 | CCC(/C=C1\Sc2c(ccc3ccccc23)N1CC)=C\c1sc2c3ccccc3ccc2[n+]1CC.[I-] [Compound 21] | 377 | 334 |  | ++ |  |  |  | 
4 | COc1ccc(N2c3ccc(/C=C4\Oc5ccc(I)cc5C4=O)cc3C3CCCC32)cc1 (centres unmarked) [Compound 108] | 680 | 530 |  | ∘ |  |  |  | 
5 | Cc1cc(C)cc(Nc2ccc3c4c(cc(=O)n3C)-c3ccccc3C(=O)c24)c1 [Compound 109] | 630 | 540 |  | ∘ |  |  |  | 
6 | CCCCNc1ccc2c3c(cccc13)C(=O)N(CCCC)C2=O [Compound 87] | 551 | 466 |  | ++ |  |  |  | 
7 | Nc1c(OCCOC(=O)Oc2ccccc2)cc(O)c2c1C(=O)c1ccccc1C2=O [Compound 114] |  |  |  | ∘ |  |  | 568 | 513
8 | COc1ccc2cc(N3c4ccc(/C=C5\C(=O)N(c6ccc(C(=O)O)cc6)N=C5C)cc4C4CCCC43)ccc2c1 (centres unmarked) [Compound 49] | 649 | 569 |  | ++ |  |  |  | 
9 | COc1ccc(N2c3ccc(/C=c4/s/c(=C5/SC(=O)N(Cc6ccccc6)C5=O)n(CC(=O)O)c4=O)cc3C3CCCC32)cc1 (centres unmarked) [Compound 53] | 712 | 568 |  | ++ |  |  |  | 
10 | COc1ccc(Nc2ccc3c4c(cc(=O)n3C)-c3ccccc3C(=O)c24)cc1 [Compound 116] |  |  |  | ∘ |  |  | 584 | 537
11 | COc1ccc(N2c3ccc(/C=C/c4sc5ccccc5[n+]4CCC(=O)O)cc3C3CCCC32)cc1 (centres unmarked) [Compound 77] | 668 | 583 |  | ++ |  |  |  | 
12 | CCCCCN1/C(=C/C=C/c2oc3ccccc3[n+]2CCCCC)Oc2ccccc21.[I-] [Compound 29] | 509 | 474 |  | ++ |  |  |  | 
13 | CCN(CC)CC.O=S(=O)([O-])CCC[n+]1c(/C=C/C=C2\Sc3ccccc3N2CCCS(=O)(=O)O)sc2ccccc21 [Compound 19] | 576 | 545 | 1 | ++ |  |  |  | 
14 | O=C(O)C[n+]1c(/C=C/c2ccc3c(c2)C2CCCC2N3c2ccccc2)sc2ccccc21.[Br-] (centres unmarked) [Compound 61] | 636 | 545 |  | ++ |  |  |  | 
15 | CCN1C=C/C(=C\C=C\c2oc3ccccc3[n+]2CC)c2ccccc21.[I-] [Compound 22] | 620 | 571 | 1 | ++ |  |  |  | 
16 | COC(=O)CCc1ccc(Oc2cc(O)c3c(c2N)C(=O)c2ccccc2C3=O)c(C)c1 [Compound 113] |  |  |  | ∘ |  |  | 575 | 514
17 | C[n+]1c(C=c2sc(=Cc3ccc4c(c3)C3CCCC3N4c3ccc(C=C(c4ccccc4)c4ccccc4)cc3)c(=O)n2CC(=O)O)sc2ccccc21.[Br-] (centres unmarked) [Compound 101] | 760 | 560 | 1 | ∘ |  |  |  | 
18 | O=C(O)CN1C(=O)/C(=C\c2cc(Br)c3c(c2)C2CCCC2N3Cc2ccccc2)SC1=S (centres unmarked) [Compound 56] | 606 | 486 |  | ++ |  |  |  | 
19 | O=C(O)C[n+]1c(/C=C/c2ccc3c(c2)C2CCCC2N3c2ccc(C=C(c3ccccc3)c3ccccc3)cc2)oc2ccccc21.[Br-] (centres unmarked) [Compound 65] | 657 | 570 | 1 | ++ |  |  |  | 
20 | CCOC(=O)CN1C(=O)/C(=C\c2cc(Br)c3c(c2)C2CCCC2N3c2ccc(Br)cc2)SC1=S (centres unmarked) [Compound 50] | 580 | 482 |  | ++ |  |  |  | 
21 | CCOC(=O)CN1C(=O)/C(=C\c2ccc3c(c2)C2CCCC2N3c2ccccc2)SC1=S (centres unmarked) [Compound 52] | 638 | 580 |  | ++ |  |  |  | 
22 | CCN1C(=O)/C(=c2\s/c(=C/c3ccc4c(c3)[C@@H]3CCC[C@@H]3N4c3ccc(OC)cc3)c(=O)n2CC(=O)O)SC1=S [Compound 41] | 679 | 582 |  | ++ |  |  |  | 

Row | SMILES | λem (fluorescence wavelength) [1, 3] | λex (excitation wavelength) [1, 3] | Stained site [2] | Staining ability [2] | λem (fluorescence wavelength) [1] | λex (excitation wavelength) [1] | λem (fluorescence wavelength) [1, 4] | λex (excitation wavelength) [1, 4]
23 | CCN1C(=O)/C(=c2\s/c(=C/c3cc(Br)c4c(c3)C3CCCC3N4Cc3ccccc3)c(=O)n2CC(=O)O)SC1=S (centres unmarked) [Compound 73] | 649 | 548 |  | ++ |  |  |  | 
24 | O=C(O)C1=NN(c2ccccc2)C(=O)/C1=C\c1ccc2c(c1)C1CCCC1N2c1ccc(Cc2ccccc2)cc1 (centres unmarked) [Compound 45] | 586 | 481 |  | ++ |  |  |  | 
25 | CCOC(=O)Cn1c(=Cc2sc3ccccc3[n+]2C)sc(=Cc2ccc3c(c2)C2CCCC2N3c2ccc(C=C(c3ccccc3)c3ccccc3)cc2)c1=O.[Br-] (centres unmarked) [Compound 84] | 718 | 599 | 2 | ++ |  |  |  | 
26 | Cc1cccc(Nc2ccc3c4c(cc(=O)n3C)-c3ccccc3C(=O)c24)c1 [Compound 115] |  |  |  | ∘ |  |  | 614 | 540
27 | O=C(O)C[n+]1c(/C=C/c2ccc3c(c2)C2CCCC2N3c2ccc(C=C(c3ccccc3)c3ccccc3)cc2)sc2ccccc21.[Br-] (centres unmarked) [Compound 62] | 675 | 610 | 2 | ++ |  |  |  | 
28 | O=C1C=Cc2cc(S(=O)(=O)O)cc(S(=O)(=O)O)c2/C1=N/Nc1ccc(S(=O)(=O)O)c2ccccc12 [Compound 4] | 560 | 473 |  | ++ |  |  |  | 
29 | Nc1c(OCCCOc2ccccc2)cc(O)c2c1C(=O)c1ccccc1C2=O [Compound 112] |  |  |  | ∘ |  |  | 568 | 513
30 | Cn1c(=O)cc2c3c(c(NC4CCCCC4)ccc31)C(=O)c1ccccc1-2 [Compound 1] | 619 | 599 |  | ++ |  |  |  | 
31 | CCN1S/C(=c2\s/c(=C/c3ccc4c(c3)[C@@H]3CCC[C@@H]3N4Cc3ccccc3)c(=O)n2CC(=O)O)SC1=S [Compound 39] | 657 | 576 |  | ++ |  |  |  | 
32 | CSc1cccc(N2c3ccc(/C=C4/SC(=S)N(CC(=O)O)C4=O)cc3C3CCCC32)c1 (centres unmarked) [Compound 103] | 640 | 520 |  | ∘ |  |  |  | 
33 | CCN1C(=O)/C(=c2/s/c(=C/c3ccc4c(c3)C3CCCC3N4c3ccc(C=C(c4ccccc4)c4ccccc4)cc3)c(=O)n2CC(=O)O)SC1=S (centres unmarked) [Compound 80] | 673 | 551 |  | ++ |  |  |  | 
34 | CC1(C)c2ccccc2-c2ccc(N(c3ccccc3)c3ccc(/C=C4/SC(=S)N(CC(=O)O)C4=O)cc3)cc21 [Compound 33] | 628 | 512 |  | ++ |  |  |  | 
35 | CCCCCC(CC)Nc1ccc2c3c(cc(=O)n2C)-c2ccccc2C(=O)c13 (centres unmarked) [Compound 2] | 553 | 486 |  | +++ |  |  |  | 
36 | C=CCN1C(=O)/C(=C2\S/C(=C/c3ccc4c(c3)C3CCCC3N4c3ccccc3)CN2CC(=O)O)SC1=S (centres unmarked) [Compound 98] | 690 | 510 |  | ∘ |  |  |  | 
37 | COc1ccc(N2c3ccc(/C=C/C4=[N+](CCC(=O)O)c5ccc6ccccc6c5C4(C)C)cc3C3CCCC32)cc1.[I-] (centres unmarked) [Compound 75] | 683 | 619 | 1 | ++ |  |  |  | 
38 | CCN1C(=S)S/C(=c2/s/c(=C/c3cc(Br)c4c(c3)[C@@H]3CCC[C@@H]3N4c3ccc(Br)cc3)c(=O)n2CC(=O)O)C1=S [Compound 40] | 671 | 559 |  | ++ |  |  |  | 
39 | Cn1c(=O)cc2c3c(c(NCc4ccccc4)ccc31)C(=O)c1ccccc1-2 [Compound 3] | 556 | 480 |  | ++ |  |  |  | 
40 | COc1ccc(N2c3ccc(/C=C/C4=[N+](CCC(=O)O)c5ccccc5C4(C)C)cc3C3CCCC32)cc1.[I-] (centres unmarked) [Compound 71] | 671 | 592 |  | ++ |  |  |  | 
41 | C=CCN1C(=O)/C(=c2\s/c(=C/c3ccc4c(c3)C3CCCC3N4c3ccc(OC)cc3)c(=O)n2CC(=O)O)SC1=S (centres unmarked) [Compound 97] | 680 | 530 |  | ∘ |  |  |  | 
42 | Cc1ccc(C)c(Nc2ccc3c4c(cc(=O)n3C)-c3ccccc3C(=O)c24)c1 [Compound 121] |  |  |  | ∘ |  |  | 609 | 537
43 | CCCCc1ccc(Nc2ccc3c4c(cc(=O)n3C)-c3ccccc3C(=O)c24)cc1 [Compound 118] |  |  |  | ∘ |  |  | 634 | 540
